Experimental data from patent US7960381B2, “Substituted gamma lactams as therapeutic agents” (Allergan, Inc., priority 2007, dated 2011).

System: normotensive dogs
Experiment: Ocular surface hyperemia in normotensive dogs
Type: in vivo
Conditions: once daily for 5 days
Experimental: U.S. Pat. No. 7,091,231 describes the methods used for these in vivo tests.
5-(3-{(S)-1-[4-(1-Hydroxyhexyl)-phenyl]-5-oxo-pyrrolidin-2-yl}-propyl)-thiophene-2-carboxylic acid 2-hydroxyethyl ester (1) was tested in normotensive dogs at 0.003%, dosing once daily for 5 days. The maximum intraocular pressure (IOP) decrease from baseline was 4.4 mmHg (32%) at 30 h; the maximum ocular surface hyperemia (OSH) score was 0.9 at 30 h. This compound was also tested in laser-induced hypertensive monkeys, using one single day dose. At 0.003%, the maximum IOP decrease from baseline was 13.4 mmHg (38%) at 24 h. Compound 1 was also tested in normotensive dogs at 0.001%, dosing once daily for 5 days. The maximum intraocular pressure (IOP) decrease from baseline was 3.75 mmHg (23%) at 76 h; the maximum ocular surface hyperemia (OSH) score was 1.1 at 74 h. Compound 1 was also tested in laser-induced hypertensive monkeys, using one single day dose. At 0.001%, the maximum IOP decrease from baseline was 12.7 mmHg (31%) at 24 h.
5-(3-{(S)-1-[4-(1-Hydroxyhexyl)-phenyl]-5-oxo-pyrrolidin-2-yl}-propyl)-thiophene-2-carboxylic acid 2-morpholin-4-yl-ethyl ester (2) was tested in normotensive dogs at 0.003%, dosing once daily for 5 days. The maximum intraocular pressure (IOP) decrease from baseline was 5.9 mmHg (36%) at 52 h; the maximum ocular surface hyperemia (OSH) score was 1.1 at 50 h. This compound was also tested in laser-induced hypertensive monkeys, using one single day dose. At 0.003%, the maximum IOP decrease from baseline was 20 mmHg (53%) at 24 h.

[1] = 0.003%, maximum at 30 h (1), 50 h (2)

SMILES	maximum ocular surface hyperemia (OSH) score (0.001%, maximum at 74 h)	maximum ocular surface hyperemia (OSH) score [1]
CCCCCC(O)c1ccc(N2C(=O)CC[C@@H]2CCCc2ccc(C(=O)OCCO)s2)cc1 (single isomer, unassigned) [Compound 1]	1.1	0.9
CCCCCC(O)c1ccc(N2C(=O)CC[C@@H]2CCCc2ccc(C(=O)OCCN3CCOCC3)s2)cc1 (single isomer, unassigned) [Compound 2]		1.1
